Reference: the NIST ThermoML archive (doi:10.1021/je5010214)

Details: Liquid, Vibrating tube method

CCCCCCC [heptane]
Details | mass density [kg/m3]
343.15 K, 47908 kPa | 688
343.15 K, 50059 kPa | 689.668
343.15 K, 52026 kPa | 691.103
343.15 K, 59944 kPa | 696.69
343.15 K, 61966 kPa | 697.921
343.15 K, 65070 kPa | 699.939
343.15 K, 66059 kPa | 700.533
343.16 K, 34034 kPa | 676.976
343.16 K, 54918 kPa | 693.158
343.16 K, 57986 kPa | 695.23
348.15 K, 100.3 kPa | 636.109
348.15 K, 462.2 kPa | 636.505
348.15 K, 859.8 kPa | 637.192
348.15 K, 974.2 kPa | 637.393
348.15 K, 1974.9 kPa | 638.781
348.15 K, 3051.1 kPa | 640.295
348.15 K, 5094 kPa | 643.002
348.15 K, 10025 kPa | 649.256
348.15 K, 14792 kPa | 654.622
348.15 K, 20111 kPa | 660.386
348.15 K, 22163 kPa | 662.539
348.15 K, 28080 kPa | 668.108
348.15 K, 30149 kPa | 670.002
348.15 K, 32161 kPa | 671.799
348.15 K, 32935 kPa | 672.452
348.15 K, 33959 kPa | 673.504
348.15 K, 35045 kPa | 674.428
348.15 K, 37937 kPa | 676.834
348.15 K, 40026 kPa | 678.502
348.15 K, 45051 kPa | 682.511
348.15 K, 47915 kPa | 684.825
348.15 K, 49950 kPa | 686.336
348.15 K, 52167 kPa | 688.088
348.15 K, 55022 kPa | 690.168
348.15 K, 57945 kPa | 692.261
348.15 K, 62063 kPa | 695.106
348.15 K, 64942 kPa | 696.91
348.15 K, 66153 kPa | 697.788
348.16 K, 291.7 kPa | 636.475
348.16 K, 7050.2 kPa | 645.632
348.16 K, 9003.2 kPa | 648.038
348.16 K, 12187 kPa | 651.83
348.16 K, 17899 kPa | 658.098
348.16 K, 25100 kPa | 665.329
348.16 K, 32942 kPa | 672.463
348.16 K, 42066 kPa | 680.23
348.16 K, 60030 kPa | 693.748
353.15 K, 100.5 kPa | 631.649
353.15 K, 336 kPa | 631.995
353.15 K, 572.6 kPa | 632.233
353.15 K, 926 kPa | 632.774
353.15 K, 1016.4 kPa | 632.95
353.15 K, 2992.1 kPa | 635.919
353.15 K, 4963.9 kPa | 638.644
353.15 K, 7000.9 kPa | 641.284
353.15 K, 9062.3 kPa | 643.911
353.15 K, 10005 kPa | 645.176
353.15 K, 12128 kPa | 647.788
353.15 K, 14954 kPa | 651.028
353.15 K, 17977 kPa | 654.406
353.15 K, 19937 kPa | 656.492
353.15 K, 21894 kPa | 658.507
353.15 K, 24908 kPa | 661.562
353.15 K, 27850 kPa | 664.482
353.15 K, 29936 kPa | 666.345
353.15 K, 31876 kPa | 668.022
353.15 K, 32911 kPa | 668.934
353.15 K, 32961 kPa | 669.075
353.15 K, 34945 kPa | 670.985
353.15 K, 37913 kPa | 673.509
353.15 K, 40143 kPa | 675.336
353.15 K, 42067 kPa | 677.003
353.15 K, 45002 kPa | 679.292
353.15 K, 48029 kPa | 681.775
353.15 K, 50145 kPa | 683.478
353.15 K, 52082 kPa | 685.052
353.15 K, 55132 kPa | 687.213
353.15 K, 57980 kPa | 689.013
353.15 K, 60098 kPa | 690.731
353.15 K, 65063 kPa | 694.154
353.16 K, 2113.4 kPa | 634.631
353.16 K, 33964 kPa | 670.126
353.16 K, 62042 kPa | 692.223
353.16 K, 66024 kPa | 694.802
358.15 K, 100.4 kPa | 626.935
358.15 K, 264.1 kPa | 627.168
358.15 K, 508.4 kPa | 627.316
358.15 K, 926.8 kPa | 628.098
358.15 K, 1013.9 kPa | 628.327
358.15 K, 3021.2 kPa | 631.365
358.15 K, 4930 kPa | 634.077
358.15 K, 10073 kPa | 641.066
358.15 K, 12137 kPa | 643.735
358.15 K, 14905 kPa | 646.944
358.15 K, 17965 kPa | 650.491
358.15 K, 22175 kPa | 654.965
358.15 K, 25059 kPa | 657.993
358.15 K, 28035 kPa | 660.974
358.15 K, 30002 kPa | 662.532
358.15 K, 31978 kPa | 664.488
358.15 K, 32793 kPa | 665.093
358.15 K, 33039 kPa | 665.404
358.15 K, 33850 kPa | 666.525
358.15 K, 35026 kPa | 667.567
358.15 K, 37872 kPa | 669.996
358.15 K, 40037 kPa | 671.748
358.15 K, 42100 kPa | 673.454
358.15 K, 47958 kPa | 678.424
358.15 K, 50038 kPa | 680.129
358.15 K, 52081 kPa | 681.85
358.15 K, 55073 kPa | 684.059
358.15 K, 57918 kPa | 685.685
358.15 K, 60043 kPa | 687.68
358.15 K, 62066 kPa | 689.111
358.15 K, 64986 kPa | 691.283
358.15 K, 66109 kPa | 692.023
358.16 K, 2083.9 kPa | 629.903
358.16 K, 6993.5 kPa | 637.086
358.16 K, 9030.2 kPa | 639.755
358.16 K, 20162 kPa | 652.87
358.16 K, 45054 kPa | 675.954
363.15 K, 104.1 kPa | 622.138
363.15 K, 334 kPa | 622.474
363.15 K, 601.7 kPa | 622.649
363.15 K, 892.9 kPa | 623.267
363.15 K, 1034.7 kPa | 623.668
363.15 K, 1986 kPa | 625.081
363.15 K, 2940.4 kPa | 626.678
363.15 K, 4979.2 kPa | 629.757
363.15 K, 9959.5 kPa | 636.563
363.15 K, 11971 kPa | 639.421
363.15 K, 14936 kPa | 642.887
363.15 K, 17973 kPa | 646.544
363.15 K, 19940 kPa | 648.708
363.15 K, 24872 kPa | 654.024
363.15 K, 27993 kPa | 657.078
363.15 K, 30062 kPa | 659.006
363.15 K, 31961 kPa | 660.63
363.15 K, 33033 kPa | 661.606
363.15 K, 33053 kPa | 661.633
363.15 K, 34000 kPa | 663.017
363.15 K, 35028 kPa | 664.03
363.15 K, 37919 kPa | 666.495
363.15 K, 39916 kPa | 668.059
363.15 K, 42016 kPa | 669.917
363.15 K, 47947 kPa | 675.063
363.15 K, 50050 kPa | 676.807
363.15 K, 52023 kPa | 678.457
363.15 K, 54940 kPa | 680.815
363.15 K, 57916 kPa | 682.78
363.15 K, 59980 kPa | 684.625
363.15 K, 62043 kPa | 686.168
363.15 K, 64924 kPa | 688.267
363.15 K, 66088 kPa | 689.169
363.16 K, 6920.2 kPa | 632.642
363.16 K, 8964.8 kPa | 635.395
363.16 K, 21933 kPa | 650.806
363.16 K, 44987 kPa | 672.551
